This experiment relates to Mus musculus. The experiment can be described thus: Reduction in Abeta oligomers levels in Tg2576 mouse administered for 4 weeks. It counts as functional.

The results in this text go back to ChEMBL document CHEMBL3779823, “Structure of amyloid oligomers and their mechanisms of toxicities: Targeting amyloid oligomers using novel therapeutic approaches” (2016).

Regarding `NS(=O)(=O)c1cc(C(=O)O)c(NCc2ccco2)cc1Cl` [FUROSEMIDE], the “inhibition (INH)” value is recorded as 30%.
